Holding throughout (assay type): cell-based
One test addresses KAT2B (Homo sapiens, UniProt Q92831). The experiment in a line: KAT2B degradation, Western Blot (Jess), NCI-H1048 cells. Details: degrader, Western blot (Jess). Particulars: NCI-H1048 cells, KAT2B, 24 h, Western Blot, vs DMSO; read-out: KAT2B NCI-H1048 DC50. Summed up: (§1)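 NCI-H1048 cells grown in HITES medium with 5% FBS were treated with compounds for 24 h at 37° C. Lysates were run by capillary Western (Jess) with KAT2A or KAT2B antibodies and chemiluminescent detection. DC50 derived from percent protein reduction versus DMSO control.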

Test [1] deals with T1, KAT2A (Homo sapiens, UniProt Q92830). As to the kind of experiment: KAT2A degradation, Western Blot (Jess), NCI-H1048 cells. Set-up: degrader, Western blot (Jess). Particulars: NCI-H1048 cells, KAT2A, 24 h, Western Blot, vs DMSO; read-out: KAT2A NCI-H1048 DC50. Summed up: as §1
T1 sequence (Q92830 whole entry): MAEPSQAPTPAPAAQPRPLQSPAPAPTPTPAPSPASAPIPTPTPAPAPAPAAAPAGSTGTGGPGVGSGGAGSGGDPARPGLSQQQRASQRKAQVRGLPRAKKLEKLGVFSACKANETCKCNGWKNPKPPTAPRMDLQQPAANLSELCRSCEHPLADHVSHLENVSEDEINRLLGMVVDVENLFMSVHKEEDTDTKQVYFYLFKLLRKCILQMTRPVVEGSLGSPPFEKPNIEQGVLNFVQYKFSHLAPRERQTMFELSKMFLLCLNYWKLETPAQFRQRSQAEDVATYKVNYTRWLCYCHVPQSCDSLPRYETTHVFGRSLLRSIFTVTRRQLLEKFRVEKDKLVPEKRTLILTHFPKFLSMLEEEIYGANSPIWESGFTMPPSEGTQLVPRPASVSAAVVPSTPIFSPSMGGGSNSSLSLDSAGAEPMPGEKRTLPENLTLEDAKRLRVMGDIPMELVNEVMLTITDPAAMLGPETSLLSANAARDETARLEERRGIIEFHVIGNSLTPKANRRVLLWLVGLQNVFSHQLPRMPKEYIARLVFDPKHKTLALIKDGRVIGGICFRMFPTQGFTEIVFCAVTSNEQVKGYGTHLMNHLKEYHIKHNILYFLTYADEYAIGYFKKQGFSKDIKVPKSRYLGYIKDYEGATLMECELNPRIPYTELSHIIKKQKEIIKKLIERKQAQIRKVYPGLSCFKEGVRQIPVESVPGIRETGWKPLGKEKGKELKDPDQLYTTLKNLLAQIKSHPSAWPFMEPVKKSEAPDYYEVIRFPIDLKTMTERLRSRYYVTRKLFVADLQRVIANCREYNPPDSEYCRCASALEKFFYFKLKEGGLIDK
Another test concerns MOLM-13 cells. The experiment in a line: Cell growth inhibition, AML cell line MOLM-13 (CyQuant, day 7). The following applies: Homo sapiens, 168 h; MOLM-13, day 7, CyQuant; read-out: MOLM13 GI50. From the text:
Among other things, provided technologies are useful for treating various diseases, disorders, or conditions. For example, in some embodiments, provided technologies are useful for treating cancer as confirmed in the present Example. […] In some embodiments, provided technologies can inhibit cell proliferation. In some embodiments, the present disclosure provides technologies for assessing various technologies, e.g., compounds, compositions, or methods. Among other things, the present Example provides technologies, e.g., cell growth inhibition assay, for assessing various technologies. […] In some embodiments, the following cell growth inhibition methods are utilized to assess provided technologies.
AML: AML cell line MOLM-13 cells were cultured in RPMI+15% FBS and were plated at 500 cells/well in 100 uL media in a U-bottom 96-well plate. Compounds were dilute to 3×final in full media and 50 uL were added to corresponding wells. Compound and media were replenished on days 2 and 5. On day 7, cells were transferred to a 96-well black bottom plate and CyQuant was performed per manufacturer's instructions.
In some assessments, for cell growth inhibition, cells, e.g., MOLM13, NCI-H1048, and LASCPC-01 cells, were counted using a hemocytometer or automated cell counting in triplicates. In some assessments, proliferation in NEPC organoids as measured with Cell Titer Glo reagent (Promega). Growth inhibition was determined relative to vehicle control.

Test [2] concerns the target T1, KAT2A. The experiment in a line: KAT2A degradation, Western Blot (Jess), MOLM-13 cells. Details: degrader, Western blot. The following applies: MOLM-13 cells, KAT2A, 24 h, Western Blot, vs DMSO; read-out: KAT2A MOLM-13 DC50. Summed up:
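MOLM-13 cells in RPMI 1640/20% FBS were treated with compound for 24 h at 37 °C. RIPA lysates (4 μg) were run on a capillary Western (Jess) with anti-KAT2A antibody and chemiluminescent detection. DC50 comes from percent protein reduction versus DMSO control.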
(Immunoblotting shows a protein as a band on a membrane.)

Where only a bound is given, the exact number is not on record here.

Here are results for 22 molecules from patent publication US20260306640A1, “TECHNOLOGIES TARGETING CELL STATES” (Auron Therapeutics, Inc., priority 2023, published 2026).

The DC50 is the concentration at which degradation of the target reaches its halfway point. The GI50 is the concentration that inhibits growth by half.

Sequence of KAT2B (Q92831 whole entry): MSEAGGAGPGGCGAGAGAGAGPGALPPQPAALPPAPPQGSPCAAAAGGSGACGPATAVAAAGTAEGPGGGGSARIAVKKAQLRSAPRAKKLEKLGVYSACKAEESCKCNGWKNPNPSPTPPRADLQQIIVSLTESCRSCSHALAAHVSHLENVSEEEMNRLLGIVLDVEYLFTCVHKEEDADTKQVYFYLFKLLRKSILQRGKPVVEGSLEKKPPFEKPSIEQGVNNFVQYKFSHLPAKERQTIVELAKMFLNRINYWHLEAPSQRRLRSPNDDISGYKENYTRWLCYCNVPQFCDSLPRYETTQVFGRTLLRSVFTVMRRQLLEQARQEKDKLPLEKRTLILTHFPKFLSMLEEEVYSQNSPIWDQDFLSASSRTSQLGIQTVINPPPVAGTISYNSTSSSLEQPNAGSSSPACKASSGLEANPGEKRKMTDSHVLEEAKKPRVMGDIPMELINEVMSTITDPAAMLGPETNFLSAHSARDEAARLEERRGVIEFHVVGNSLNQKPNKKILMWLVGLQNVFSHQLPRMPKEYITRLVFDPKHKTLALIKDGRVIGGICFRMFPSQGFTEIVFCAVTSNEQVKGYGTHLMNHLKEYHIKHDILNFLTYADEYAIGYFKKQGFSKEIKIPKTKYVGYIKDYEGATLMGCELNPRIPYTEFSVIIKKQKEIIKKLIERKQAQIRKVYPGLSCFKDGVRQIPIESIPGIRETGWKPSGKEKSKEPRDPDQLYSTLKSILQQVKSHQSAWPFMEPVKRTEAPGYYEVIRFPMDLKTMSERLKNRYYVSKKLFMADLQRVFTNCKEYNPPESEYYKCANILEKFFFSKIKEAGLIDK

On to `Cc1cc(N2CCC3(CCN(C(=O)c4ccc([C@H]5C[C@@H](Nc6cnn(C)c(=O)c6C)CN(C)C5)cc4)CC3)CC2)ccc1C1CCC(=O)NC1=O` (some centres unmarked) [Compound 219], for which the DC50 on KAT2B and at KAT2A [1] was less than 1 nM throughout. The GI50 with MOLM-13 cells amounted to 5.9 nM.

Take `CN1C[C@H](Nc2cnn(C)c(=O)c2Br)C[C@H](c2ccc(C(=O)N3CCC4(CC3)CCN(c3ccc(C5CCC(=O)NC5=O)cc3)CC4)cc2)C1` (single isomer, unassigned) [Compound 240]: the DC50 on KAT2B and on KAT2A [1] was less than 1 nM throughout. In the test on MOLM-13 cells, the GI50 amounted to 3.9 nM.

On to `CN1C[C@H](Nc2cnn(C)c(=O)c2Br)C[C@H](c2ccc(C(=O)N3CCC4(CC3)CCN(c3ccc(OC5CCC(=O)NC5=O)cc3)CC4)cc2)C1` (some centres unmarked) [Compound 363], for which the results for the DC50 at KAT2B and on KAT2A [1] were 1 to 30 nM and less than 1 nM, respectively. In addition, the GI50 in the test on MOLM-13 cells worked out at 5.7 nM.

As to `Cc1cc(N2CCC3(CCN(C(=O)c4ccc([C@H]5C[C@@H](Nc6cnn(C)c(=O)c6Br)CN(C)C5)cc4)CC3)CC2)c(F)cc1C1CCC(=O)NC1=O` (some centres unmarked) [Compound 243], the DC50 at KAT2B is more than 30 nM; on KAT2A [1] it was 1 to 30 nM. Also, in the test on MOLM-13 cells, the GI50 is more than 100 nM.

With `CN1C[C@H](Nc2cnn(C)c(=O)c2Cl)C[C@H](c2ccc(C(=O)N3CCC4(CC3)CCN(c3ccc(C5CCC(=O)NC5=O)c(F)c3)CC4)cc2)C1` (stereo partly drawn) [Compound 228, 3-[4-[3-[4-[(3R,5R)-5-[(5-chloro-1-methyl-6-oxo-pyridazin-4-yl)amino]-1-methyl-3-piperidyl]benzoyl]-3,9-diazaspiro[5.5]undecan-9-yl]-2-fluoro-phenyl]piperidine-2,6-dione], the DC50 on KAT2B and at KAT2A [1] was less than 1 nM in each case. The GI50 with MOLM-13 cells is 0.9 nM.

Turning to `CN1C[C@H](Nc2cnn(C)c(=O)c2Cl)C[C@H](c2ccc(C(=O)N3CCC4(CCC(c5ccc(C6CCC(=O)NC6=O)cc5F)CC4)CC3)cc2)C1` (some centres unmarked) [Compound 231], the results for the DC50 at KAT2B and at KAT2A [1] were 1 to 30 nM and less than 1 nM, respectively. For the same molecule, the GI50 in the test on MOLM-13 cells was 7.3 nM.

For `CN1C[C@H](Nc2cnn(C)c(=O)c2Br)C[C@H](c2ccc(C(=O)N3CCC(CN4CCN(c5ccc6c(c5)C(=O)N(C5CCC(=O)NC5=O)C6=O)CC4)CC3)cc2)C1` (some centres unmarked) [Compound 40], the DC50 at KAT2A [2] is less than 1 nM. Besides, the GI50 with MOLM-13 cells came out at 7.8 nM.

For `Cc1cc(N2CCC3(CCN(C(=O)c4ccc([C@H]5C[C@@H](Nc6cnn(C)c(=O)c6Cl)CN(C)C5)cc4)CC3)CC2)ccc1C1CCC(=O)NC1=O` (some centres unmarked) [Compound 223], the DC50 on KAT2B and at KAT2A [1] was less than 1 nM in each case. The GI50 with MOLM-13 cells was found to be 4.4 nM.

Take `CN1C[C@H](Nc2cnn(C)c(=O)c2Cl)C[C@H](c2ccc(C(=O)N3CCC4(CC3)CCN(c3ccc(C5CCC(=O)NC5=O)cc3)CC4)cc2)C1` (stereo partly drawn) [Compound 145, 3-[4-[3-[4-[(3R,5R)-5-[(5-chloro-1-methyl-6-oxo-pyridazin-4-yl)amino]-1-methyl-3-piperidyl]benzoyl]-3,9-diazaspiro[5.5]undecan-9-yl]phenyl]piperidine-2,6-dione]: the DC50 on KAT2B, on KAT2A [1] and at KAT2A [2] was less than 1 nM each time. Moreover, the GI50 in the test on MOLM-13 cells came to 1 nM.

For the molecule `Cc1cc(N2CCC3(CCN(C(=O)c4ccc([C@H]5C[C@@H](Nc6cnn(C)c(=O)c6Cl)CN(C)C5)cc4)CC3)CC2)c(F)cc1C1CCC(=O)NC1=O` (some centres unmarked) [Compound 242], the DC50 on KAT2B is more than 30 nM; at KAT2A [1], 1 to 30 nM. In addition, in the test on MOLM-13 cells, the GI50 is more than 100 nM.

On to `CN1C[C@H](Nc2cnn(C)c(=O)c2Br)C[C@H](c2ccc(C(=O)N3CCC4(CC3)CCN(c3ccc(C5CCC(=O)NC5=O)c(F)c3)CC4)cc2)C1` (stereo partly drawn) [Compound 157, 3-[4-[3-[4-[(3R,5R)-5-[(5-bromo-1-methyl-6-oxo-pyridazin-4-yl)amino]-1-methyl-3-piperidyl]benzoyl]-3,9-diazaspiro[5.5]undecan-9-yl]-2-fluoro-phenyl]piperidine-2,6-dione], for which the DC50 at KAT2B, at KAT2A [1] and on KAT2A [2] was less than 1 nM each time. The 50% growth inhibitory concentration (GI50) in the test on MOLM-13 cells came to 0.9 nM.

Regarding `COc1cc(N2CCC3(CCN(C(=O)c4ccc([C@H]5C[C@@H](Nc6cnn(C)c(=O)c6Cl)CN(C)C5)cc4)CC3)CC2)ccc1C1CCC(=O)NC1=O` (some centres unmarked) [Compound 232], the DC50 on KAT2B was 1 to 30 nM; on KAT2A [1], less than 1 nM. Also, in the test with MOLM-13 cells, the GI50 is 5.2 nM.

`CN1C[C@H](Nc2cnn(C)c(=O)c2Br)C[C@H](c2ccc(COc3ccc4c(c3)C(=O)N(C3CCC(=O)NC3=O)C4=O)cc2)C1` (some centres unmarked) [Compound 39]: the DC50 is 1 to 30 nM at KAT2B, less than 1 nM on KAT2A [1] and less than 1 nM at KAT2A [2]. In the test on MOLM-13 cells, the GI50 was determined as 5.6 nM.

As for `Cc1cc(C2CCC(=O)NC2=O)ccc1N1CCC2(CCN(C(=O)c3ccc([C@H]4C[C@@H](Nc5cnn(C)c(=O)c5Cl)CN(C)C4)cc3)CC2)CC1` (some centres unmarked) [Compound 250], the DC50 at KAT2B and at KAT2A [1] was less than 1 nM each time. Besides, in the test with MOLM-13 cells, the GI50 turned out to be 3.7 nM.

With `CN1C[C@H](Nc2cnn(C)c(=O)c2Cl)C[C@H](c2ccc(C(=O)N3CCC4(CC3)CCN(c3ccc(C5CCC(=O)NC5=O)cn3)CC4)cc2)C1` (some centres unmarked) [Compound 2-52], the DC50 at KAT2B and on KAT2A [1] was less than 1 nM in each case. Moreover, in the test with MOLM-13 cells, the GI50 stood at 0.4 nM.

As for `CN1C[C@H](Nc2cnn(C)c(=O)c2Br)C[C@H](c2ccc(CN3CCN(c4cccc([C@H]5CCC(=O)NC5=O)c4)CC3)cc2)C1` [Compound 84, 3-[3-[4-[[4-[(3R,5R)-5-[(5-bromo-1-methyl-6-oxo-pyridazin-4-yl)amino]-1-methyl-3-piperidyl]phenyl]methyl]piperazin-1-yl]phenyl]piperidine-2,6-dione], the DC50 was 1 to 30 nM on KAT2B, less than 1 nM at KAT2A [1] and less than 1 nM on KAT2A [2]. Besides, the GI50 in the test with MOLM-13 cells turned out to be 1.1 nM.

With `Cc1c(N[C@@H]2C[C@H](c3ccc(C(=O)N4CCC5(CC4)CCN(c4ccc(C6CCC(=O)NC6=O)c(F)c4)CC5)cc3)CN(C)C2)cnn(C)c1=O` (stereo partly drawn) [Compound 229, 3-[4-[3-[4-[(3R,5R)-5-[(1,5-dimethyl-6-oxo-pyridazin-4-yl)amino]-1-methyl-3-piperidyl]benzoyl]-3,9-diazaspiro[5.5]undecan-9-yl]-2-fluoro-phenyl]piperidine-2,6-dione], the DC50 on KAT2B and at KAT2A [1] was less than 1 nM each time. Moreover, in the test on MOLM-13 cells, the GI50 was found to be 0.7 nM.

Regarding `CN1C[C@H](Nc2cnn(C)c(=O)c2Cl)C[C@H](c2ccc(C(=O)N3CCC4(CC3)CCN(c3ccc5c(C6CCC(=O)NC6=O)nn(C)c5c3)CC4)cc2)C1` (stereo partly drawn) [Compound 208, 3-[6-[3-[4-[(3R,5R)-5-[(5-chloro-1-methyl-6-oxo-pyridazin-4-yl)amino]-1-methyl-3-piperidyl]benzoyl]-3,9-diazaspiro[5.5]undecan-9-yl]-1-methyl-indazol-3-yl]piperidine-2,6-dione], the DC50 at KAT2B and on KAT2A [1] was less than 1 nM in each case. Besides, in the test on MOLM-13 cells, the GI50 was 0.3 nM.

In the case of `CN1C[C@H](Nc2cnn(C)c(=O)c2Cl)C[C@H](c2ccc(C(=O)N3CCC4(CC3)CCN(c3ccc(OC5CCC(=O)NC5=O)cc3)CC4)cc2)C1` (some centres unmarked) [Compound 362], the DC50 is 1 to 30 nM on KAT2B and less than 1 nM at KAT2A [1]. Also, the GI50 with MOLM-13 cells came to 33.3 nM.

`CN1C[C@H](Nc2cnn(C)c(=O)c2Br)C[C@H](c2ccc(C(=O)N3CCC4(CC3)CCN(c3ccc(C5CCC(=O)NC5=O)cc3F)CC4)cc2)C1` (some centres unmarked) [Compound 146]: the DC50 on KAT2B, at KAT2A [1] and at KAT2A [2] was less than 1 nM throughout. Besides, the GI50 with MOLM-13 cells came out at 5.9 nM.

`CN1C[C@H](Nc2cnn(C)c(=O)c2Cl)C[C@H](c2ccc(C(=O)N3CCC4(CC3)CCN(c3ccc(C5CCC(=O)NC5=O)nc3)CC4)cc2)C1` (some centres unmarked) [Compound 233]: the DC50 on KAT2B was 1 to 30 nM; on KAT2A [1], less than 1 nM. Further, in the test with MOLM-13 cells, the GI50 is 5.5 nM.

With `Cc1cc(N2CCC3(CCN(C(=O)c4ccc([C@H]5C[C@@H](Nc6cnn(C)c(=O)c6Br)CN(C)C5)cc4)CC3)CC2)ccc1C1CCC(=O)NC1=O` (some centres unmarked) [Compound 167], the DC50 at KAT2B, at KAT2A [1] and at KAT2A [2] was less than 1 nM throughout. Moreover, the GI50 in the test on MOLM-13 cells turned out to be 4.8 nM.
